Results from doi:10.1101/2023.04.18.537371v1 (bioRxiv, 2023).
Like-named read-outs stand apart in the source and are kept apart here. Peptide text beside a SMILES is read from it.

Assays:
[1] = molecular target: T1, CYP1A2 (Homo sapiens, UniProt P05177); experiment: biochemical; assay type: in vitro ADME
T1 sequence (P05177 1-516): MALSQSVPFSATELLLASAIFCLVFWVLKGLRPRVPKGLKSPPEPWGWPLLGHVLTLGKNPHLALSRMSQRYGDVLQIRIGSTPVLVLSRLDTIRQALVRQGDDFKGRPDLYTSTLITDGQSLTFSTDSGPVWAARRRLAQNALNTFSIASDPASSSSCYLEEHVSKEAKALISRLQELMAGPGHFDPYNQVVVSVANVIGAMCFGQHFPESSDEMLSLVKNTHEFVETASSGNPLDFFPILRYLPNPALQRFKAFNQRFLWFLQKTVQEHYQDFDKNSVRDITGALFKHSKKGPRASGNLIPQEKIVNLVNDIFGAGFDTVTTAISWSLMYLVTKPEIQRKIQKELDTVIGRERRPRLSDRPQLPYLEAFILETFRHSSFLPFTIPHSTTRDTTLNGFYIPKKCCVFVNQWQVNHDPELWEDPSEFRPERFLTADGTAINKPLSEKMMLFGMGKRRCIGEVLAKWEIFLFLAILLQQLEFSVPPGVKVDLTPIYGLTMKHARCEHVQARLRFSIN

[2] = Bidirectional permeability and efflux in Caco-2 cells; assay type: in vitro ADME; conditions: human
[3] = tested on: Caco-2 cell monolayers; experiment: as above; assay type: in vitro ADME
[4] = In vitro protein binding, rapid equilibrium dialysis; assay type: in vitro ADME; conditions: beagle, dog, plasma
[5] = Plasma stability; assay type: in vitro ADME, cynomolgus monkey
[6] = molecular target: OATP1B3 (Homo sapiens, UniProt Q9NPD5); experiment: Transporter inhibition in HEK293 cells; assay type: in vitro ADME
[7] = Single rising dose pharmacokinetics in beagle dogs; assay type: in vivo, beagle dog; conditions: for AUC(0-inf) / AUC(0-t) / Cmax / Tmax / half-life: male, beagle, dog, plasma, sc
[8] = molecular target: OAT3 (Homo sapiens, UniProt Q8TCC7); experiment: Transporter inhibition in HEK293 cells; assay type: in vitro ADME
[9] = tested on: monkey hepatocytes; experiment: Metabolite identification in hepatocytes; assay type: in vitro ADME; conditions: cryopreserved monkey hepatocytes, FC-12738 10 μM, 37 °C, 240 min, LC-UV-MS
[10] = molecular target: T2, CYP2B6 (Homo sapiens, UniProt P20813); experiment: biochemical; assay type: in vitro ADME
T2 sequence (P20813 1-491): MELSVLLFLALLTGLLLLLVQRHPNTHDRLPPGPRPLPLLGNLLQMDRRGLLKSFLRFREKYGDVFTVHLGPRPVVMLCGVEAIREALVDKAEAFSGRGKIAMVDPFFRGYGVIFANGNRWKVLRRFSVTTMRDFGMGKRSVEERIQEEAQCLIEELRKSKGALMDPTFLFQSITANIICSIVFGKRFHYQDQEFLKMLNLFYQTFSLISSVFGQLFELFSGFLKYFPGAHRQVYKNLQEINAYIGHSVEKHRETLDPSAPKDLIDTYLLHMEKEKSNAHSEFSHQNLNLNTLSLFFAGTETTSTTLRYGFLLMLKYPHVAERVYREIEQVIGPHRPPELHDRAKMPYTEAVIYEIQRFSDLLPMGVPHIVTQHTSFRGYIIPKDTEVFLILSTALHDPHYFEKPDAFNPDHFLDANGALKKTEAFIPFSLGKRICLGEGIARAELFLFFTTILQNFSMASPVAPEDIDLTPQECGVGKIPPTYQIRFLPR

[11] = molecular target: T1, CYP1A2; experiment: biochemical; assay type: in vitro ADME; remark: listed apart in the source
[12] = tested on: beagle dog hepatocytes; experiment: Hepatocyte stability; assay type: in vitro ADME; conditions: 1.00 μM
[13] = 2.00 μM, with 10.0 μM GF120918, Caco-2, 120 min
[14] = 10.0 μM, with 10.0 μM GF120918, Caco-2, 120 min
[15] = 10.0 μM, without GF120918, Caco-2, 120 min
[16] = 100 μM, with 10.0 μM GF120918, Caco-2, 120 min
[17] = 100 μM, without GF120918, Caco-2, 120 min

Sequence of OAT3 (Q8TCC7 whole entry): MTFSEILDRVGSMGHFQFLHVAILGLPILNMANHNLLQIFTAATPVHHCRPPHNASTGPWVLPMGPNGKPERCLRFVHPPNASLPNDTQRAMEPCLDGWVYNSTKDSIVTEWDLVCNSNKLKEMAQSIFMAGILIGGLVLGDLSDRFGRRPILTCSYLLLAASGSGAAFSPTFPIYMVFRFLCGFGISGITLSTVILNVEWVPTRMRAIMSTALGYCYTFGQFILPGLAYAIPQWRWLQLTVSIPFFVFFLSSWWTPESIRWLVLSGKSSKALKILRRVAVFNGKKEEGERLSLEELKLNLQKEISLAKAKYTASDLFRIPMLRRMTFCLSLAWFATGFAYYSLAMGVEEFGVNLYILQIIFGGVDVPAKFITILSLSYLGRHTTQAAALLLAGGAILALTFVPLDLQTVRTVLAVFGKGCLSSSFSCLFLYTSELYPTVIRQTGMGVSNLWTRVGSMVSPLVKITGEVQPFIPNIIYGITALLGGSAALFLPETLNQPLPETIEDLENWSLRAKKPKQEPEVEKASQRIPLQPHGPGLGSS
Sequence of OATP1B3 (Q9NPD5 whole entry): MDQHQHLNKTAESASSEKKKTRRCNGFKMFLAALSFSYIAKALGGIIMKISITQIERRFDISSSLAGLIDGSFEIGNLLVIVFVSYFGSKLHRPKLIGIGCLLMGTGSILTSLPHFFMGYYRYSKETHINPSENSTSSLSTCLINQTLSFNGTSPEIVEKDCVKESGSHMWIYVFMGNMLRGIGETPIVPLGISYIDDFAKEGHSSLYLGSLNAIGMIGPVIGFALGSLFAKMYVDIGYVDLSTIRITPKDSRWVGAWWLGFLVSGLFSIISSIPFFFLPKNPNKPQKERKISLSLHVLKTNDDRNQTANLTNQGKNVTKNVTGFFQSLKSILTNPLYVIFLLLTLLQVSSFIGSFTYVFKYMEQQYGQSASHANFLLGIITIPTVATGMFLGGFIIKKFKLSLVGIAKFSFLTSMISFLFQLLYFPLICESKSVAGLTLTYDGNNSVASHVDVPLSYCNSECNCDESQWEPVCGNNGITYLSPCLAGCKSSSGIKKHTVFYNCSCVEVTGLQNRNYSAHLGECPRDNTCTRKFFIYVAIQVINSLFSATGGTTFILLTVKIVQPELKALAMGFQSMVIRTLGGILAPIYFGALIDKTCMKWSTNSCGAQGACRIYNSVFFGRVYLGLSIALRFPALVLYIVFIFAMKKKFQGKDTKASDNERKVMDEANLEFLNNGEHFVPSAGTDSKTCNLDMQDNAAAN

## CC(C)[C@@H](NC(=O)[C@H](N)Cc1ccc(O)cc1)C(=O)N[C@H](CC(=O)O)C(=O)N[C@H](CCCCN)C(=O)N[C@H](CCCNC(=N)N)C(=O)O [FC-12738, (D-Tyr)-(D-Val)-(D-Asp)-(D-Lys)-(D-Arg)] (HELM PEPTIDE1{[dY].[dV].[dD].[dK].[dR]}$$$$V2.0)
[1]
  IC50: > 100 µM
[1]; cutoff IC50 shift >= 1.5-fold, 30 min pre-incubation ± NADPH
  Time-dependent inhibition of CYP1A2: no time-dependent inhibition
[2]; Caco-2
  efflux ratio at 120 min, 10 μM: 0.88
  efflux ratio at 120 min, 100 μM: 1.24
[2]; Caco-2, with GF120918 10.0 μM
  efflux ratio at 120 min, 10 μM: 1.13
[3]; [13]
  Mean %Solution Recovery A to B: <92.9%
  Mean %Solution Recovery B to A: <96.5%
[3]; [14]
  Mean %Solution Recovery A to B: 89.9%
  Mean %Solution Recovery B to A: 96.5%
[3]; [15]
  Mean %Solution Recovery A to B: 90.2%
  Mean %Solution Recovery B to A: 100.5%
[3]; [16]
  Efflux Ratio (ERi): 1.23
  Mean %Solution Recovery A to B: 86.9%
  Mean %Solution Recovery B to A: 97.0%
[3]; [17]
  Mean %Solution Recovery A to B: 89.1%
  Mean %Solution Recovery B to A: 95.3%
[3]; 2.00, 10.0 and 100 μM
  Permeability across the Caco-2 cell monolayer (conclusion): low permeable
[4]
  fraction unbound at 6 h, 0.2 µM: 0.492
  fraction unbound at 6 h, 2 µM: 0.461
  fraction unbound at 6 h, 10 µM: 0.691
[5]; cynomolgus monkey plasma, 2.00 μM, 37.0 °C, up to 120 min
  half-life: > 6.212 h
[5]; monkey, plasma
  remaining at 10 min, 2 μM: 105%
  remaining at 0.5 h, 2 μM: 105%
  remaining at 1 h, 2 μM: 105%
  remaining at 2 h, 2 μM: 102%
[6]
  IC50: > 100 µM
[7]; male beagle dogs, SC 1 to 25 mg/kg
  Dose dependence of systemic exposure (AUC0-last and Cmax): increased with dose proportionally
[7]; 1 mg/kg
  AUC(0-inf): 2770 ng·h/mL
  AUC(0-t): 2760 ng·h/mL
  Cmax: 925 ng/mL
  Tmax: 1 h
  half-life: 0.957 h
[7]; 5 mg/kg
  AUC(0-inf): 16800 ng·h/mL
  AUC(0-t): 16700 ng·h/mL
  Cmax: 7090 ng/mL
  Tmax: 1 h
  half-life: 0.906 h
[7]; 25 mg/kg
  AUC(0-inf): 72800 ng·h/mL
  AUC(0-t): 72800 ng·h/mL
  Cmax: 33300 ng/mL
  Tmax: 0.667 h
  half-life: 2.01 h
[8]
  IC50: > 100 µM
[9]
  Relative Abundance (UV%): 89.24%
[10]
  IC50: > 100 µM
[11]
  IC50: > 100 µM
[12]; cryopreserved beagle dog hepatocytes, 37.0°C, 120 min
  intrinsic clearance CLint(hep): < 1.9 μL/min/10^6 cells
[12]; cryopreserved beagle dog hepatocytes, 37.0°C, 120 min, LC-MS/MS
  half-life: > 6.212 h
[12]; scaled from beagle dog hepatocytes
  hepatic clearance CLint(liver): < 12.8 mL/min/kg
